Reference: patent US11857592B2, “Polygala extract for the treatment of attention-deficit hyperactivity disorder” (BioLite, Inc., priority 2020, dated 2024)

System: ICR male mice
Assay: In vivo tetrabenazine-induced hypothermia assay
Conditions: for activity discovered through in vivo tetrabenazine-induced hypothermia test: antidepressant-like activity in mice; for temperature recovery of TBZ-induced hypothermic response: oral gavage 60 min before TBZ 85 mg/kg i.p., 120 min after TBZ challenge
Description: The around 70% of PDC-1421 in Example 1 are composed of sucroester (34%), saponin (18%) and xanthone (17%). Some active compounds of in the powder product of Example 1, including polygalatenosides A/B/C (2nd fraction 1), ploygalaxanthone III, sibiricoses A5, and 7-O-methylmangiferin are also discovered through in vivo tetrabenazine-induced hypothermia test (one of rodent models for evaluating antidepressant-like activity in mice). Imipramine (as the positive control), PDC-1421, 1st Fraction 10-19, 1st Fraction 33, 2nd Fraction-1 (wherein the major components are polygalatenosides A/B/C), 2nd Fraction-3, TMCA, Polygalaxanthone III, Onjisaponin B, Sibiricose A5, 7-O-Methylmangiferin and Sibiricaxanthone B are dissolved in water for injection (WFI) and administered by oral gavage. The dosing volume is 10 mL/kg. Test substances and vehicle (WFI) are administered by oral gavage to groups of 8 ICR male mice weighing 23±3 g for 60 minutes, and then tetrabenazine (TBZ, 85 mg/kg) is injected intraperitoneally. Body temperature is recorded before (0 min), and 60, 90 and 120 min after TBZ challenge. Therefore, drug-induced hypothermia (e.g., TBZ and reserpine) animal model is a typical experiment to evaluate the activity of NRI on depression. Temperature recovery of TBZ-induced hypothermic response is considered as indication of a anti-depressant activity.

SMILES	activity discovered through in vivo tetrabenazine-induced hypothermia test	temperature recovery of TBZ-induced hypothermic response
COc1cc2c(=O)c3c(O)c([C@@H]4O[C@H](CO)[C@@H](O)[C@H](O)[C@H]4O)c(O)cc3oc2cc1O [7-O-Methylmangiferin]	active	had a temperature recovery
COc1cc2c(=O)c3c(O)c([C@@H]4O[C@H](CO[C@@H]5OC[C@](O)(CO)[C@H]5O)[C@@H](O)[C@H](O)[C@H]4O)c(O)cc3oc2cc1O [Polygalaxanthone III]	active	had a temperature recovery
COc1cc(/C=C/C(=O)O[C@H]2[C@H](O)[C@@H](CO)O[C@@]2(CO)O[C@H]2O[C@H](CO)[C@@H](O)[C@H](O)[C@H]2O)ccc1O [Sibiricoses A5, Sibiricose A5]	active	had a temperature recovery
